Reference: patent US11478461B2, “[1.1.1] bicyclo compounds as indoleamine 2,3-dioxygenase inhibitors” (Merck Sharp & Dohme Corp., priority 2018, dated 2022)

Each compound was assayed against IDO1 (Homo sapiens, UniProt P14902) (assay: IDO1 Cellular Assay in Hela Cells Stimulated with IFNγ). Details: IFNγ 100 ng/mL, 300 uM L-tryptophan, about 48 hours, fluorescence readout, read-out: IDO1 HELA Cell Assay, IC50.
Assay type: cell-based
Method in brief: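 HeLa cells stimulated with 100 ng/mL IFNγ, supplemented with 300 uM L-tryptophan, incubated 48 h at 37° C with ten 3-fold compound dilutions. Unstimulated cells served as Max-E control. Kynurenine detected by fluorescence (ex 400/em 510 nm) after overnight methyl isonipecotate reaction; IC50 by four-parameter logistic fit.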

Sequence of IDO1 (P14902 whole entry): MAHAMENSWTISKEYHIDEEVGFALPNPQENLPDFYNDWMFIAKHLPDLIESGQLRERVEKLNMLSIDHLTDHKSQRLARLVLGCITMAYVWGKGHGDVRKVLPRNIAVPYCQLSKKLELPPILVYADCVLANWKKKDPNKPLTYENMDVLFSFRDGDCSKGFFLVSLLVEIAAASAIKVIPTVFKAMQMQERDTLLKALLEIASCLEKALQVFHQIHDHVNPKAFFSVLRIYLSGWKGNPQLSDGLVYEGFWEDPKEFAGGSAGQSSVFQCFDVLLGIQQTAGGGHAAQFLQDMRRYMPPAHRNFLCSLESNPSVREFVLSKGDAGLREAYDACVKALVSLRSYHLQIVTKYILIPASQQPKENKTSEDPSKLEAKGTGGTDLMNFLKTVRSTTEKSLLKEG

SMILES	IC50
CC(C(=O)Nc1ccc(F)cc1)C12CC(NC(=O)c3cc4ccccn4c3)(C1)C2 (stereo not shown) [Example 116, N-[3-[2-(4-fluoroanilino)-1-methyl-2-oxo-ethyl]-1-bicyclo[1.1.1]pentanyl]indolizine-2-carboxamide]	69.2 nM
CCc1ccnc(C(=O)NC23CC(C(C)C(=O)Nc4ccc(F)cc4)(C2)C3)c1 (stereo not shown) [Example 117, 4-ethyl-N-[3-[2-(4-fluoroanilino)-1-methyl-2-oxo-ethyl]-1-bicyclo[1.1.1]pentanyl]pyridin-1-ium-2-carboxamide]	73.5 nM
Cc1ccnc(C(=O)NC23CC(C(C)C(=O)Nc4ccc(F)cc4)(C2)C3)c1 (stereo not shown) [Example 118, N-[3-[2-(4-fluoroanilino)-1-methyl-2-oxo-ethyl]-1-bicyclo[1.1.1]pentanyl]-4-methyl-pyridin-1-ium-2-carboxamide]	89.4 nM
Cc1cccc(C(=O)NC23CC(C(C)C(=O)Nc4ccc(F)cc4)(C2)C3)n1 (stereo not shown) [Example 119, N-[3-[2-(4-fluoroanilino)-1-methyl-2-oxo-ethyl]-1-bicyclo[1.1.1]pentanyl]-6-methyl-pyridin-1-ium-2-carboxamide]	113 nM
CC(C(=O)Nc1ccc(F)cc1)C12CC(NC(=O)c3cc(C4CC4)on3)(C1)C2 (stereo not shown) [Example 120, 5-cyclopropyl-N-[3-[2-(4-fluoroanilino)-1-methyl-2-oxo-ethyl]-1-bicyclo[1.1.1]pentanyl]isoxazole-3-carboxamide]	125 nM
CC(C(=O)Nc1ccc(F)cc1)C12CC(NC(=O)c3cccc4c3CC(=O)N4)(C1)C2 (stereo not shown) [Example 121, N-[3-[2-(4-fluoroanilino)-1-methyl-2-oxo-ethyl]-1-bicyclo[1.1.1]pentanyl]-2-oxo-indoline-4-carboxamide]	131 nM
Cc1cncc(C(=O)NC23CC(C(C)C(=O)Nc4ccc(F)cc4)(C2)C3)c1 (stereo not shown) [Example 122, N-[3-[2-(4-fluoroanilino)-1-methyl-2-oxo-ethyl]-1-bicyclo[1.1.1]pentanyl]-5-methyl-pyridin-1-ium-3-carboxamide]	132 nM
Cc1nc(C(=O)NC23CC(C(C)C(=O)Nc4ccc(F)cc4)(C2)C3)cs1 (stereo not shown) [Example 123, N-[3-[2-(4-fluoroanilino)-1-methyl-2-oxo-ethyl]-1-bicyclo[1.1.1]pentanyl]-2-methyl-thiazole-4-carboxamide]	147 nM
Cc1ccn2ncc(C(=O)NC34CC(C(C)C(=O)Nc5ccc(F)cc5)(C3)C4)c2c1 (stereo not shown) [Example 124, N-[3-[2-(4-fluoroanilino)-1-methyl-2-oxo-ethyl]-1-bicyclo[1.1.1]pentanyl]-5-methyl-pyrazolo[1,5-a]pyridin-1-ium-3-carboxamide]	153 nM
COc1cc(C(=O)NC23CC(C(C)C(=O)Nc4ccc(F)cc4)(C2)C3)ccn1 (stereo not shown) [Example 125, N-[3-[2-(4-fluoroanilino)-1-methyl-2-oxo-ethyl]-1-bicyclo[1.1.1]pentanyl]-2-methoxy-pyridin-1-ium-4-carboxamide]	178 nM
CC(C(=O)Nc1ccc(F)cc1)C12CC(NC(=O)c3cccc4ccnn34)(C1)C2 (stereo not shown) [Example 126, N-[3-[2-(4-fluoroanilino)-1-methyl-2-oxo-ethyl]-1-bicyclo[1.1.1]pentanyl]pyrazolo[1,5-a]pyridin-1-ium-7-carboxamide]	180 nM
CC(C(=O)Nc1ccc(F)cc1)C12CC(NC(=O)c3ccn4ccccc34)(C1)C2 (stereo not shown) [Example 127, N-[3-[2-(4-fluoroanilino)-1-methyl-2-oxo-ethyl]-1-bicyclo[1.1.1]pentanyl]indolizine-1-carboxamide]	186 nM
CC(C(=O)Nc1ccc(F)cc1)C12CC(NC(=O)Cc3ccccc3C(F)(F)F)(C1)C2 (stereo not shown) [Example 128, N-(4-fluorophenyl)-2-[3-[[2-[2-(trifluoromethyl)phenyl]acetyl]amino]-1-bicyclo[1.1.1]pentanyl]propanamide]	194 nM
CC(C(=O)Nc1ccc(F)cc1)C12CC(NC(=O)c3ccccn3)(C1)C2 (stereo not shown) [Example 129, N-[3-[2-(4-fluoroanilino)-1-methyl-2-oxo-ethyl]-1-bicyclo[1.1.1]pentanyl]pyridin-1-ium-2-carboxamide]	232 nM
CC(C(=O)Nc1ccc(F)cc1)C12CC(NC(=O)c3cccc4ccncc34)(C1)C2 (stereo not shown) [Example 130, N-[3-[2-(4-fluoroanilino)-1-methyl-2-oxo-ethyl]-1-bicyclo[1.1.1]pentanyl]isoquinolin-2-ium-8-carboxamide]	247 nM
CC(C(=O)Nc1ccc(F)cc1)C12CC(NC(=O)c3ccn(C(F)F)n3)(C1)C2 (stereo not shown) [Example 131, 1-(difluoromethyl)-N-[3-[2-(4-fluoroanilino)-1-methyl-2-oxo-ethyl]-1-bicyclo[1.1.1]pentanyl]pyrazole-3-carboxamide]	248 nM
Cc1ccc(C(=O)NC23CC(C(C)C(=O)Nc4ccc(F)cc4)(C2)C3)cn1 (stereo not shown) [Example 132, N-[3-[2-(4-fluoroanilino)-1-methyl-2-oxo-ethyl]-1-bicyclo[1.1.1]pentanyl]-6-methyl-pyridin-1-ium-3-carboxamide]	252 nM

SMILES	IC50
CC(C(=O)Nc1ccc(F)cc1)C12CC(NC(=O)c3ccc(C(F)(F)F)cn3)(C1)C2 (stereo not shown) [Example 133, N-[3-[2-(4-fluoroanilino)-1-methyl-2-oxo-ethyl]-1-bicyclo[1.1.1]pentanyl]-5-(trifluoromethyl)pyridin-1-ium-2-carboxamide]	259 nM
CC(C(=O)Nc1ccc(F)cc1)C12CC(NC(=O)c3cccc4cnccc34)(C1)C2 (stereo not shown) [Example 134, N-[3-[2-(4-fluoroanilino)-1-methyl-2-oxo-ethyl]-1-bicyclo[1.1.1]pentanyl]isoquinolin-2-ium-5-carboxamide]	267 nM
CC(C(=O)Nc1ccc(F)cc1)C12CC(NC(=O)c3cnnc4ccccc34)(C1)C2 (stereo not shown) [Example 135, N-[3-[2-(4-fluoroanilino)-1-methyl-2-oxo-ethyl]-1-bicyclo[1.1.1]pentanyl]cinnoline-4-carboxamide]	276 nM
Cc1nc(C)c(C(=O)NC23CC(C(C)C(=O)Nc4ccc(F)cc4)(C2)C3)s1 (stereo not shown) [Example 136, N-[3-[2-(4-fluoroanilino)-1-methyl-2-oxo-ethyl]-1-bicyclo[1.1.1]pentanyl]-2,4-dimethyl-thiazole-5-carboxamide]	318 nM
CC(C(=O)Nc1ccc(F)cc1)C12CC(NC(=O)c3ncccc3F)(C1)C2 (stereo not shown) [Example 137, 3-fluoro-N-[3-[2-(4-fluoroanilino)-1-methyl-2-oxo-ethyl]-1-bicyclo[1.1.1]pentanyl]pyridin-1-ium-2-carboxamide]	387 nM
CCOc1cccc(C(=O)NC23CC(C(C)C(=O)Nc4ccc(F)cc4)(C2)C3)n1 (stereo not shown) [Example 138, 6-ethoxy-N-[3-[2-(4-fluoroanilino)-1-methyl-2-oxo-ethyl]-1-bicyclo[1.1.1]pentanyl]pyridin-1-ium-2-carboxamide]	388 nM
Cc1cc(C(=O)NC23CC(C(C)C(=O)Nc4ccc(F)cc4)(C2)C3)n(C)n1 (stereo not shown) [Example 139, N-[3-[2-(4-fluoroanilino)-1-methyl-2-oxo-ethyl]-1-bicyclo[1.1.1]pentanyl]-2,5-dimethyl-pyrazole-3-carboxamide]	396 nM
CC(C(=O)Nc1ccc(F)cc1)C12CC(NC(=O)c3cnc(Cl)cn3)(C1)C2 (stereo not shown) [Example 140, 5-chloro-N-[3-[2-(4-fluoroanilino)-1-methyl-2-oxo-ethyl]-1-bicyclo[1.1.1]pentanyl]pyrazine-2-carboxamide]	399 nM
CCc1cc(C(=O)NC23CC(C(C)C(=O)Nc4ccc(F)cc4)(C2)C3)n(C)n1 (stereo not shown) [Example 141, 5-ethyl-N-[3-[2-(4-fluoroanilino)-1-methyl-2-oxo-ethyl]-1-bicyclo[1.1.1]pentanyl]-2-methyl-pyrazole-3-carboxamide]	415 nM
CC(C(=O)Nc1ccc(F)cc1)C12CC(NC(=O)c3cccnc3)(C1)C2 (stereo not shown) [Example 142, N-[3-[2-(4-fluoroanilino)-1-methyl-2-oxo-ethyl]-1-bicyclo[1.1.1]pentanyl]pyridin-1-ium-3-carboxamide]	418 nM
CC(C(=O)Nc1ccc(F)cc1)C12CC(NC(=O)c3cccn4nncc34)(C1)C2 (stereo not shown) [Example 143, N-[3-[2-(4-fluoroanilino)-1-methyl-2-oxo-ethyl]-1-bicyclo[1.1.1]pentanyl]triazolo[1,5-a]pyridin-1-ium-4-carboxamide]	448 nM
CC(C(=O)Nc1ccc(F)cc1)C12CC(NC(=O)c3cc4ccccc4cn3)(C1)C2 (stereo not shown) [Example 144, N-[3-[2-(4-fluoroanilino)-1-methyl-2-oxo-ethyl]-1-bicyclo[1.1.1]pentanyl]isoquinolin-2-ium-3-carboxamide]	463 nM
C[C@H](C(=O)Nc1ccc(F)cc1)C12CC(NC(=O)c3ccc(C(F)(F)F)nc3)(C1)C2 [Example 146, (S)-N-(3-(1-((4-fluorophenyl)amino)-1-oxopropan-2-yl)bicyclo[1.1.1]pentan-1-yl)-6-(trifluoromethyl)nicotinamide]	218 nM
C[C@H](C(=O)Nc1ccc(F)cc1)C12CC(NC(=O)c3ccc4cccnc4c3)(C1)C2 [Example 147, (S)-N-(3-(1-((4-fluorophenyl)amino)-1-oxopropan-2-yl)bicyclo[1.1.1]pentan-1-yl)quinoline-7-carboxamide]	176 nM
C[C@H](C(=O)Nc1ccc(F)cc1)C12CC(NC(=O)c3ccc4ccccc4c3)(C1)C2 [Example 148, (S)-N-(3-(1-((4-fluorophenyl)amino)-1-oxopropan-2-yl)bicyclo[1.1.1]pentan-1-yl)-2-naphthamide]	19.7 nM
C[C@H](C(=O)Nc1ccc(F)cc1)C12CC(NC(=O)c3ccc(Cl)c(Cl)n3)(C1)C2 [Example 149, (S)-5,6-dichloro-N-(3-(1-((4-fluorophenyl)amino)-1-oxopropan-2-yl)bicyclo[1.1.1]pentan-1-yl)picolinamide]	26.9 nM
C[C@H](C(=O)Nc1ccc(F)cc1)C12CC(NC(=O)c3ccc(C#N)c(Cl)c3)(C1)C2 [Example 150, (S)-3-chloro-4-cyano-N-(3-(1-((4-fluorophenyl)amino)-1-oxopropan-2-yl)bicyclo[1.1.1]pentan-1-yl)benzamide]	48.3 nM
